Experimental data as given in US20220264878A1, “HERBICIDAL COMPOSITION CONTAINING R-TYPE PYRIDYLOXY CARBOXYLIC ACID DERIVATIVE AND USE THEREOF” (Qingdao Kingagroot Chemical Compound Co., Ltd., priority 2019, published 2022).
Where two headings read alike, the source gives them in different places.

Experiments:
Assay in all cases: Post-emergence foliage spray, pot culture, fresh weight inhibition (Tables 1-48, 51-98, 101-148; 24 days)
Assay type in all cases: in vivo
Echinochloa caudate = conditions: Echinochloa, 576 h, read-out: Control effect (%) of B applied alone in corresponding dose
Method: (§1) The above weeds were cultivated by a pot culture method. […] Full and uniform weed seeds were selected, soaked in warm water at 25° C. for 6 hours, and germinated in a 28° C. biochemical incubator (darkness). The weed seeds that had just germinatedwere evenly placed on the surface of the soil and then covered with 0.5-1 cm soil according to the sizes of seeds.
(§2) The technical materials were all dissolved in acetone, and diluted with an aqueous solution containing 0.1% emulsifier Tween-80. The dilution is performed as required.
(§3) A ratio of the active ingredient A to the active ingredient B and amounts thereof in each group depends on the characteristics and toxicity of the two agents, as well as the main application purpose of a corresponding formulation. Based on the pre-tests in this study, the dosage of the active ingredient A and B applied alone and in combination were shown in the tables. Water containing the solvent and emulsifier same with the above groups but free of the agents was used as a blank control.
(§4) In the stage of weeds with 3˜4 leaves, the weeds were thinned out to maintain 15 weeds per pot and 45 weeds for each treatment, then continued to be cultured to 5˜6 leaves stage of grassy weeds, 6˜7 leaves stage of broadleaf weeds, and treated.
(§5) The well-cultured weeds were evenly placed on a platform with an area of 0.5 m^2, and a solution of agents was sprayed on the stems and leaves thereof by the 3WP-2000-type walking spray tower at a dosage of 450 kg/ha and at a spray pressure of 0.3 MPa. After all the solution was sprayed, the valve was closed. After 30 seconds, the door of the spray tower was opened, and the nutritional bowl was taken out. Then the valve was opened, and the spray tube was cleaned by spraying 50 ml of water.
(§6) A pot-culture method was employed. For the cultivation of weeds, please refer to the Section 1.1), and “Pesticide guidelines for laboratory bioactivity tests—herbicides”. As to a method for applying agents, please refer to the section 2.3.2), that is, a foliage treatment was employed. After the treatment, the weeds were routinely cultured in a greenhouse.
(§7) A method for investigating absolute number was employed, wherein whole seedlings of survival weeds were cut off with a blade along the soil surface, and the fresh weight of the weeds was weighed with an analytical balance. For dead weeds, the fresh weight thereof was zero.
(§8) Wherein, in the formula, X represented the fresh weight inhibition rate of the active ingredient A in a dosage of P, and Y represented the fresh weight inhibition rate of the active ingredient B in a dosage of Q.

[1] = tested on: Echinochloa crusgalli var. zelayensis; conditions: Echinochloa crus-galli, foliar, 576 h, foliage spray, 24 days, read-out: Control effect (%) of B applied alone in corresponding dose; for pest or weed control at 3.75 g/ha: B 3.75 g a.i./ha; for pest or weed control at 7.5 g/ha: B 7.5 g a.i./ha; for pest or weed control at 15 g/ha: B 15 g a.i./ha; for pest or weed control at 30 g/ha: B 30 g a.i./ha
Method: as §1, §2, §3, §4, §5, §6, §7, §8

Echinochloa oryzoides = conditions: Echinochloa oryzoides, 576 h, read-out: Control effect (%) of B applied alone in corresponding dose; for pest or weed control at 3.75 g/ha: 3.75 g a.i./ha; for pest or weed control at 7.5 g/ha: 7.5 g a.i./ha; for pest or weed control at 15 g/ha: 15 g a.i./ha; for pest or weed control at 30 g/ha: 30 g a.i./ha
Method: as §1, §2, §3, §4, §5, §6, §7, §8

COCc1cnc(C2=NC(C)(C(C)C)C(=O)N2)c(C(=O)O)c1 (stereo not drawn) [imazamox]
pest or weed control at 3.75 g/ha (Echinochloa caudate; imazamox 3.75 g a.i./ha): 7.6% | pest or weed control at 7.5 g/ha (Echinochloa caudate; imazamox 7.5 g a.i./ha): 16.5% | pest or weed control at 15 g/ha (Echinochloa caudate; imazamox 15 g a.i./ha): 24.8% | pest or weed control at 30 g/ha (Echinochloa caudate; imazamox 30 g a.i./ha): 53.8% | pest or weed control at 3.75 g/ha [1]: 6.9% | pest or weed control at 7.5 g/ha [1]: 14.2% | pest or weed control at 15 g/ha [1]: 25.1% | pest or weed control at 30 g/ha [1]: 54.8% | pest or weed control at 3.75 g/ha (Echinochloa oryzoides; Table 109): 4% | pest or weed control at 7.5 g/ha (Echinochloa oryzoides; Table 109): 12.6% | pest or weed control at 15 g/ha (Echinochloa oryzoides; Table 109): 27.6% | pest or weed control at 30 g/ha (Echinochloa oryzoides; Table 109): 54.4%

Cc1cnc(C2=NC(=O)C(C)(C(C)C)N2)c(C(=O)O)c1 (stereo not drawn) [imazapic]
pest or weed control at 9.375 g/ha (Echinochloa caudate; imazapic 9.375 g a.i./ha): 6.8% | pest or weed control at 18.75 g/ha (Echinochloa caudate; imazapic 18.75 g a.i./ha): 21.5% | pest or weed control at 37.5 g/ha (Echinochloa caudate; imazapic 37.5 g a.i./ha): 28.6% | pest or weed control at 75 g/ha (Echinochloa caudate; imazapic 75 g a.i./ha): 55.6% | pest or weed control at 9.375 g/ha ([1]; B 9.375 g a.i./ha): 1.2% | pest or weed control at 18.75 g/ha ([1]; B 18.75 g a.i./ha): 18.6% | pest or weed control at 37.5 g/ha ([1]; B 37.5 g a.i./ha): 26.9% | pest or weed control at 75 g/ha ([1]; B 75 g a.i./ha): 57% | pest or weed control at 9.375 g/ha (Echinochloa oryzoides; Table 108, 9.375 g a.i./ha): 4% | pest or weed control at 18.75 g/ha (Echinochloa oryzoides; Table 108, 18.75 g a.i./ha): 21.3% | pest or weed control at 37.5 g/ha (Echinochloa oryzoides; Table 108, 37.5 g a.i./ha): 30.4% | pest or weed control at 75 g/ha (Echinochloa oryzoides; Table 108, 75 g a.i./ha): 59.7%

CCc1cnc(C2=NC(C)(C(C)C)C(=O)N2)c(C(=O)O)c1 (stereo not drawn) [imazethapyr]
pest or weed control at 7.5 g/ha (Echinochloa caudate; imazethapyr 7.5 g a.i./ha): 4.2% | pest or weed control at 15 g/ha (Echinochloa caudate; imazethapyr 15 g a.i./ha): 18.1% | pest or weed control at 30 g/ha (Echinochloa caudate; imazethapyr 30 g a.i./ha): 34.8% | pest or weed control at 60 g/ha (Echinochloa caudate; imazethapyr 60 g a.i./ha): 55.6% | pest or weed control at 7.5 g/ha [1]: 3.2% | pest or weed control at 15 g/ha [1]: 19.8% | pest or weed control at 30 g/ha [1]: 31.2% | pest or weed control at 60 g/ha ([1]; B 60 g a.i./ha): 59.2% | pest or weed control at 7.5 g/ha (Echinochloa oryzoides; Table 107): 6.7% | pest or weed control at 15 g/ha (Echinochloa oryzoides; Table 107): 17.8% | pest or weed control at 30 g/ha (Echinochloa oryzoides; Table 107): 34.6% | pest or weed control at 60 g/ha (Echinochloa oryzoides; Table 107, 60 g a.i./ha): 58.2%

COc1cc(OC)nc(NC(=O)NS(=O)(=O)c2ncccc2C(=O)N(C)C)n1 [nicosulfuron]
pest or weed control at 3.75 g/ha (Echinochloa caudate; nicosulfuron 3.75 g a.i./ha): 3.8% | pest or weed control at 7.5 g/ha (Echinochloa caudate; nicosulfuron 7.5 g a.i./ha): 14.3% | pest or weed control at 15 g/ha (Echinochloa caudate; nicosulfuron 15 g a.i./ha): 40.2% | pest or weed control at 30 g/ha (Echinochloa caudate; nicosulfuron 30 g a.i./ha): 58.5% | pest or weed control at 3.75 g/ha [1]: 7.3% | pest or weed control at 7.5 g/ha [1]: 15.4% | pest or weed control at 15 g/ha [1]: 39.3% | pest or weed control at 30 g/ha [1]: 58.7% | pest or weed control at 3.75 g/ha (Echinochloa oryzoides; Table 104): 9.9% | pest or weed control at 7.5 g/ha (Echinochloa oryzoides; Table 104): 18.2% | pest or weed control at 15 g/ha (Echinochloa oryzoides; Table 104): 40.5% | pest or weed control at 30 g/ha (Echinochloa oryzoides; Table 104): 62.4%

COc1cnc(OC)n2nc(NS(=O)(=O)c3c(OCC(F)F)cccc3C(F)(F)F)nc12 [penoxsulam]
pest or weed control at 1.875 g/ha (Echinochloa caudate; penoxsulam 1.875 g a.i./ha): 3.8% | pest or weed control at 3.75 g/ha (Echinochloa caudate; penoxsulam 3.75 g a.i./ha): 15.6% | pest or weed control at 7.5 g/ha (Echinochloa caudate; penoxsulam 7.5 g a.i./ha): 46.5% | pest or weed control at 15 g/ha (Echinochloa caudate; penoxsulam 15 g a.i./ha): 69.4% | pest or weed control at 1.875 g/ha ([1]; B 1.875 g a.i./ha): 2.4% | pest or weed control at 3.75 g/ha [1]: 10.9% | pest or weed control at 7.5 g/ha [1]: 48.8% | pest or weed control at 15 g/ha [1]: 70.1% | pest or weed control at 1.875 g/ha (Echinochloa oryzoides; Table 101, 1.875 g a.i./ha): 4.7% | pest or weed control at 3.75 g/ha (Echinochloa oryzoides; Table 101): 13.8% | pest or weed control at 7.5 g/ha (Echinochloa oryzoides; Table 101): 47.9% | pest or weed control at 15 g/ha (Echinochloa oryzoides; Table 101): 68.4%
